Measurements as given in patent US6284789A, “Formation and composition of new optically active compounds” (The Research Foundation of State University of New York, priority 1999, dated 2001).
Like-named read-outs stand apart in the source and are kept apart here.

Legend:
[1] = tested on: 60 human tumor cell line screen; assay: NCI 60 human tumor cell line screen, in vitro antiproliferative activity (sulforhodamine B assay); assay type: cell-based; settings: for Percentage of cell lines affected at the given concentration: at the GI50 bound or range given on the same line of Table 3
Method: The NCI […] Screening Procedure is described in Monks et al., J. Natl. Cancer Inst., 83: […], as are the origins and processing of the cell lines. In summary, cell suspensions that are diluted according to the particular cell type and the expected target cell density (5000-40,000 cells per well based on cell growth characteristics) are added by pipet (100 μL) into 96-well microtiter plates. Inoculates are allowed a preincubation period of 24 hours at 37° C. for stabilization. Dilutions at twice the intended test concentration were added at time zero in 100 μL aliquots to the microtiter plate wells. Usually, test compounds are evaluated at five 10-fold dilutions. In routine testing, the highest well concentration is 10^-4 M, but for the standard agents the highest well concentration used depends on the agent. Incubations last for 48 hours in 5% CO2 atmosphere and 100% relative humidity. The cells are assayed by using the sulforhodamine B assay. A plate reader is used to read the optical densities, and a microcomputer processes the optical densities into the special concentration parameters.

[2] = tested on: antitumor activity; settings: background; cited from earlier work
[3] = tested on: antiviral activity; settings: background; cited from earlier work
[4] = tested on: nucleoside transport in mammalian cells; settings: background; cited from earlier work
[5] = tested on: cell division; settings: background; cited from earlier work
[6] = tested on: tubulin / microtubule assembly; settings: background; cited from earlier work
[7] = background; cited from earlier work
[8] = tested on: tolpoisomerase II; settings: increased single and double strand breaks in DNA, background; cited from earlier work
[9] = tested on: leukemias and solid tumors; settings: background; cited from earlier work
[10] = tested on: standard panel of 12 human tumor cell lines; assay: Hollow fiber assay, preliminary in vivo testing; design: species or system human tumor cell lines in mice; settings: i.p. injection once daily, 4 doses, 2 dose levels
Method: Preliminary in vivo testing was conducted by the hollow fiber assay on the oxabicyclooctane and the dioxatricyclodecanes identified as sufficiently active in the large scale in vitro cell screens. Each compound is tested against a standard panel of 12 human tumor cell lines, including NCI-H23, […], MDA-MB-231, MDA-MB-435, SW-620, COLO 205, LOX IMVI, UACC-62, OVCAR-3, OVCAR-5, U251, and SF-295. The cell lines are cultivated in RPMI-1640 containing 10% FBS and 2 mM glutamine. On the day preceding hollow fiber preparation, the cells are given a supplementation of fresh medium to maintain log phase growth. […] On the day of implantation, samples of each tumor cell line is quantitated for viable cell mass by a stable endpoint MTT assay so that the time 0 cell mass is known. Thus, the cytostatic and cytocidal capacities of the test compound can be assessed. […] Each agent is assessed by intraperitoneal injection at 2 dose levels with 3 mice/dose/experiment. […] The optical density of each sample is determined spectropphotomnetrically at 540 nm and the mean of each treatment group is calculated. The percent net cell growth in each treatment group is calculated and compared to the percent net cell growth in the vehicle treated controls. Each compound is assessed in a total of 4 experiments (3 cell lines/experiment×4 experiments=12 cell lines). […]

## 7-acetoxy-6-methoxytetralin-1-one [compound 87]
[1]
  Percentage of cell lines affected at the given concentration: 93%

## COc1cc([C@@H]2c3cc4c(cc3[C@H](O)[C@H]3COC(=O)[C@@H]23)OCO4)cc(OC)c1OC (stereo in doubt) [picropodophyllotoxin]
[2]
  Antitumor / biological activity: biologically inactive

## COc1cc([C@H]2c3cc(O)c(OC)cc3C[C@H]3C(=O)OC[C@H]23)ccc1O [ACON, α-Conidendrin]
[2]
  Antitumor / biological activity: biologically inactive

## COc1cc([C@H]2c3cc(O)c(OC)cc3C[C@@H]3C(=O)OC[C@H]23)ccc1O [BCON, β-conidendrin]
[2]
  Antitumor / biological activity: biologically inactive

## COc1cc([C@]23OC[C@H](Cc4cc5c(cc42)OCO5)[C@@H]3CO)cc(OC)c1OC [No. 2]
[1]; GI50 ranging from less than 10^-8 to 10^-5 molar
  Percentage of cell lines with the GI50 range: 26%
[1]; observed for 26% of cell lines, read-out: GI50 range observed
  GI50: 0.01 to 10 µM

## COc1ccc([C@]23OC[C@H](Cc4cc(OC)c(OC)cc42)[C@@H]3CO)cc1OC [No. 5]
[1]; 60 human tumor cell lines, 48 h, for the percentage of cell lines given beside it, read-out: GI50 (growth inhibition, 50%), GL50 [sic] in the source
  GI50: > 100 µM
[1]
  Percentage of cell lines affected at the given concentration: 96%

## COc1ccc([C@]23OC[C@H](Cc4cc(OC)c(OC)cc42)[C@@H]3COC(C)=O)cc1OC [No. 6]
[1]
  Percentage of cell lines affected at the given concentration: 10%

## COc1cc([C@@H]2c3cc4c(cc3[C@H](O)[C@H]3COC(=O)[C@H]23)OCO4)cc(OC)c1OC [PT, podophyllotoxin]
[3]
  Antiviral activity: has antiviral and antitumor activity
[4]
  Inhibition of nucleoside transport: inhibit nucleoside transport in mammalian cells
[5]
  Arrest of cell division: arrest of cell division at the mitotic stage of the cell cycle
[6]
  Inhibition of microtubule assembly: inhibiting the assembly of tubulin into microtubules
[7]
  Toxicity: highly toxic
[2]
  Antitumor / biological activity: has antiviral and antitumor activity

## COc1cc([C@@H]2c3cc4c(cc3[C@@H](O[C@@H]3O[C@@H]5CO[C@@H](C)O[C@H]5[C@H](O)[C@H]3O)[C@H]3COC(=O)[C@H]23)OCO4)cc(OC)c1O [etoposide]
[6]
  Inhibition of microtubule assembly: not inhibitors of microtubule assembly
[8]
  Interaction and inhibition of topoisomerase II: interaction and inhibition of the enzyme tolpoisomerase II
[9]
  Effectiveness in the treatment of leukemias and solid tumors: effective in the treatment of a variety of leukemias and solid tumors

## COc1cc([C@]23OC[C@H](Cc4cc5c(cc42)OCO5)[C@@H]3CO)cc(OC)c1OC [oxabicyclooctane]
[10]; i.p. fiber implants
  Intraperitoneal score, hollow fiber assay: 14
[10]; s.c. fiber implants
  Subcutaneous score, hollow fiber assay: 2

## COc1cc([C@@H]2c3cc4c(cc3[C@@H](O[C@@H]3O[C@@H]5CO[C@@H](c6cccs6)O[C@H]5[C@H](O)[C@H]3O)[C@H]3COC(=O)[C@H]23)OCO4)cc(OC)c1O [teniposide]
[6]
  Inhibition of microtubule assembly: not inhibitors of microtubule assembly
[8]
  Interaction and inhibition of topoisomerase II: interaction and inhibition of the enzyme tolpoisomerase II
[9]
  Effectiveness in the treatment of leukemias and solid tumors: effective in the treatment of a variety of leukemias and solid tumors
